Reference: US20260002121A1, “IMPROVED METHODS OF PREPARING DIFFERENT MESODERM CELL TYPES” (Children's Hospital Medical Center, priority 2021, published 2026)

Assays:
hPSC-derived mesoderm = test: Quantitative RT-PCR gene expression of differentiating mesoderm (Example 11); type: cell-based, human; settings: longer and higher levels of Wnt activation (CHIR timing)
Protocol: Total RNA was prepared from differentiating human ES cells by using Nucleospin kit according to manufacturer's protocol. Reverse transcription PCR was performed by Superscript VILO cDNA synthesis kit. QuantStudio 5 and 6 were used for qPCR analyses. Statistics were performed with PRISM8 (GraphPad Software). Significance was determined by one-way ANOVA, followed by Tukey's test.
After SpM differentiation, the cells can be observed with an inverted microscope. The cells should be at 100% confluency (FIG. 9A). The efficiency of SpM induction can be checked by immunostaining for FOXF1 and/or ISL1, or expression of relative gene profiles as provided in Table 1.
The efficiency of organ-specific mesoderm differentiation can be checked by immunostaining for WT1, PITX1, FOXF1, NKX6.1, and/or TBX5, or expression of relative gene profiles as provided in Table 1.

[1] = system: hPSC-derived lateral plate mesoderm / splanchnic mesoderm cultures; test: RT-PCR of marker genes in hPSC-derived lateral plate/splanchnic mesoderm cultures (Example 9); type: cell-based, human; settings: primitive SM treated d4-d7
Protocol: Differentiation of hPSCs into lateral plate mesoderm was induced using previously described methods with modifications. In brief, partially confluent hPSCs were dissociated into very fine clumps in Accutase (Invitrogen) and passaged 1:18 onto new Geltrex-coated 24-well plates for immunocytochemistry and 12-well plates for RNA preparation in mTeSR1 with 1 μM thiazovivin (Tocris) ([…]). Next day, a brief wash with DMEM/F12 was followed with Day 0 medium (30 ng/mL Activin A (Cell Guidance Systems), 40 ng/mL. BMP4 (R&D Systems), 6 μM CHIR99021 (Tocris), 20 ng/mL FGF2 (Thermo Fisher), 100 nM PIK90 (EMD Millipore)) for 24 hours. A basal media composed of Advanced DMEM/F12, N2, B27, 15 mM HEPES, 2 mM […], penicillin-streptomycin was used for this Day 0 medium and all subsequent differentiations. On Day 1, a brief wash with DMEM/F12 was followed with Day 1 medium (1 μM A83-01 (Tocris), 30 ng/mL BMP4, 1 μM C59 (Cellagen Technology)) for 24 hours. For cardiac mesoderm generation, cells were cultured in 1 μM A83-01, 30 ng/mL BMP4, 1 μM C59, 20 ng/mL FGF2 from Day 2 to Day 4 (medium changed every day). From Day 4, cells were cultured in 200 μg/mL 2-phospho-ascorbic acid (Sigma), 1 μM XAV939 (Sigma), 30 ng/mL BMP4 for 3 days. […] Significance was determined by one-way ANOVA, followed by Tukey's test.

SMILES	NKX6-1 expression (hPSC-derived mesoderm)	WNT2 expression (hPSC-derived mesoderm)	organ-specific SM-like lineage identity (gene expression) [1]
Cc1c[nH]c(-c2cnc(NCCNc3ccc(C#N)cn3)nc2-c2ccc(Cl)cc2Cl)n1 [CHIR, CHIR99021]	suppressed	promoted	–
c1ccc2c(Oc3nc(Nc4ccc(N5CCOCC5)cc4)c4ncn(C5CCCCC5)c4n3)cccc2c1 [HH-agonist, purmorphamine]	–	–	promoted gut tube identity and efficiently blocked the hepatic fate
